According to the NIST ThermoML archive (doi:10.1021/je301371p):
± gives the expanded uncertainty stated by the source.

Assay: xn = mol fraction of the nth substance listed
Details: 101 kPa, Liquid; for mass density: Vibrating tube method; for viscosity: Oscillating disk viscometry

Q: What does the source list for NCCCCN [1,4-butanediamine] + O?
A: mass density (298.15 K, x1 = 0.01952): 992.346 ± 0.29 kg/m3; mass density (298.15 K, x1 = 0.04244): 988.532 ± 0.3 kg/m3; mass density (298.15 K, x1 = 0.06965): 985.772 ± 0.31 kg/m3; mass density (298.15 K, x1 = 0.1025): 982.813 ± 0.32 kg/m3; mass density (298.15 K, x1 = 0.1434): 978.544 ± 0.33 kg/m3; viscosity (303.15 K, x1 = 0.01952): 1.23 ± 0.15 mPa·s; viscosity (303.15 K, x1 = 0.04244): 1.83 ± 0.22 mPa·s; viscosity (303.15 K, x1 = 0.06965): 2.51 ± 0.3 mPa·s; viscosity (303.15 K, x1 = 0.1025): 3.65 ± 0.44 mPa·s; viscosity (303.15 K, x1 = 0.1434): 4.87 ± 0.59 mPa·s; viscosity (313.15 K, x1 = 0.01952): 0.98 ± 0.12 mPa·s; viscosity (313.15 K, x1 = 0.04244): 1.39 ± 0.17 mPa·s; viscosity (313.15 K, x1 = 0.06965): 1.85 ± 0.22 mPa·s; viscosity (313.15 K, x1 = 0.1025): 2.57 ± 0.31 mPa·s; viscosity (313.15 K, x1 = 0.1434): 3.29 ± 0.4 mPa·s; mass density (313.15 K, x1 = 0.01952): 986.497 ± 0.29 kg/m3; mass density (313.15 K, x1 = 0.04244): 981.237 ± 0.3 kg/m3; mass density (313.15 K, x1 = 0.06965): 976.817 ± 0.31 kg/m3; mass density (313.15 K, x1 = 0.1025): 972.197 ± 0.32 kg/m3; mass density (313.15 K, x1 = 0.1434): 966.791 ± 0.33 kg/m3; viscosity (323.15 K, x1 = 0.01952): 0.8 ± 0.1 mPa·s; viscosity (323.15 K, x1 = 0.04244): 1.1 ± 0.13 mPa·s; viscosity (323.15 K, x1 = 0.06965): 1.4 ± 0.17 mPa·s; viscosity (323.15 K, x1 = 0.1025): 1.86 ± 0.22 mPa·s; viscosity (323.15 K, x1 = 0.1434): 2.29 ± 0.28 mPa·s; viscosity (333.15 K, x1 = 0.01952): 0.63 ± 0.08 mPa·s; viscosity (333.15 K, x1 = 0.04244): 0.9 ± 0.11 mPa·s; viscosity (333.15 K, x1 = 0.06965): 1.06 ± 0.13 mPa·s; viscosity (333.15 K, x1 = 0.1025): 1.37 ± 0.17 mPa·s; viscosity (333.15 K, x1 = 0.1434): 1.62 ± 0.2 mPa·s; mass density (333.15 K, x1 = 0.01952): 976.433 ± 0.29 kg/m3; mass density (333.15 K, x1 = 0.04244): 969.713 ± 0.3 kg/m3; mass density (333.15 K, x1 = 0.06965): 963.518 ± 0.3 kg/m3; mass density (333.15 K, x1 = 0.1025): 957.323 ± 0.31 kg/m3; mass density (333.15 K, x1 = 0.1434): 950.667 ± 0.33 kg/m3

Q: With CCN(CC)CCO [(diethylamino)ethanol] + O as the compound, how does the viscosity (298.15 K, x1 = 0.02012) read?
A: Its viscosity is 2.16 ± 0.26 mPa·s.

Q: What about the viscosity (298.15 K, x1 = 0.04547) of the same compound?
A: Its viscosity is 3.62 ± 0.44 mPa·s.

Q: And the viscosity (298.15 K, x1 = 0.1252)?
A: The viscosity was 8 ± 0.97 mPa·s.

Q: And the viscosity (298.15 K, x1 = 0.1933)?
A: Its viscosity is 11.61 ± 1.4 mPa·s.

Q: And the mass density (298.15 K, x1 = 0.02012)?
A: Its mass density is 993.744 ± 0.29 kg/m3.

Q: And the mass density (298.15 K, x1 = 0.04547)?
A: Its mass density is 990.151 ± 0.29 kg/m3.

Q: What about the mass density (298.15 K, x1 = 0.07875) of the same compound?
A: Its mass density is 983.322 ± 0.29 kg/m3.

Q: And the mass density (298.15 K, x1 = 0.1252)?
A: The mass density was 971.858 ± 0.29 kg/m3.

Q: What about the mass density (298.15 K, x1 = 0.1933) of the same compound?
A: The mass density was 961.569 ± 0.29 kg/m3.

Q: And the viscosity (303.15 K, x1 = 0.02012)?
A: The viscosity was 1.4 ± 0.17 mPa·s.

Q: And the viscosity (303.15 K, x1 = 0.04547)?
A: The viscosity was 2.34 ± 0.28 mPa·s.

Q: And the viscosity (303.15 K, x1 = 0.07875)?
A: Its viscosity is 3.61 ± 0.44 mPa·s.

Q: What about the viscosity (303.15 K, x1 = 0.1252) of the same compound?
A: Its viscosity is 5.75 ± 0.69 mPa·s.

Q: What about the viscosity (303.15 K, x1 = 0.1933) of the same compound?
A: The viscosity was 8.05 ± 0.97 mPa·s.

Q: What about the viscosity (313.15 K, x1 = 0.02012) of the same compound?
A: The viscosity was 1.12 ± 0.13 mPa·s.

Q: And the viscosity (313.15 K, x1 = 0.04547)?
A: The viscosity was 1.66 ± 0.2 mPa·s.

Q: And the viscosity (313.15 K, x1 = 0.07875)?
A: The viscosity was 2.42 ± 0.29 mPa·s.

Q: And the viscosity (313.15 K, x1 = 0.1252)?
A: The viscosity was 3.76 ± 0.45 mPa·s.

Q: What about the viscosity (313.15 K, x1 = 0.1933) of the same compound?
A: Its viscosity is 5.27 ± 0.63 mPa·s.

Q: And the mass density (313.15 K, x1 = 0.02012)?
A: Its mass density is 987.552 ± 0.29 kg/m3.

Q: What about the mass density (313.15 K, x1 = 0.04547) of the same compound?
A: The mass density was 981.577 ± 0.29 kg/m3.

Q: What about the mass density (313.15 K, x1 = 0.07875) of the same compound?
A: Its mass density is 972.648 ± 0.29 kg/m3.

Q: And the mass density (313.15 K, x1 = 0.1252)?
A: The mass density was 959.656 ± 0.29 kg/m3.

Q: And the mass density (313.15 K, x1 = 0.1933)?
A: Its mass density is 948.632 ± 0.29 kg/m3.

Q: And the viscosity (323.15 K, x1 = 0.02012)?
A: The viscosity was 0.94 ± 0.11 mPa·s.

Q: What about the viscosity (323.15 K, x1 = 0.04547) of the same compound?
A: The viscosity was 1.32 ± 0.16 mPa·s.

Q: What about the viscosity (323.15 K, x1 = 0.07875) of the same compound?
A: Its viscosity is 1.72 ± 0.21 mPa·s.

Q: What about the viscosity (323.15 K, x1 = 0.1252) of the same compound?
A: Its viscosity is 2.6 ± 0.31 mPa·s.

Q: And the viscosity (323.15 K, x1 = 0.1933)?
A: Its viscosity is 3.69 ± 0.44 mPa·s.

Q: And the viscosity (333.15 K, x1 = 0.02012)?
A: Its viscosity is 0.75 ± 0.09 mPa·s.

Q: What about the viscosity (333.15 K, x1 = 0.04547) of the same compound?
A: Its viscosity is 1.03 ± 0.12 mPa·s.

Q: And the viscosity (333.15 K, x1 = 0.07875)?
A: Its viscosity is 1.24 ± 0.15 mPa·s.

Q: And the viscosity (333.15 K, x1 = 0.1252)?
A: Its viscosity is 1.87 ± 0.23 mPa·s.

Q: What about the viscosity (333.15 K, x1 = 0.1933) of the same compound?
A: The viscosity was 2.53 ± 0.3 mPa·s.

Q: And the mass density (333.15 K, x1 = 0.02012)?
A: Its mass density is 976.86 ± 0.29 kg/m3.

Q: And the mass density (333.15 K, x1 = 0.04547)?
A: The mass density was 968.366 ± 0.29 kg/m3.

Q: And the mass density (333.15 K, x1 = 0.07875)?
A: The mass density was 957.191 ± 0.29 kg/m3.

Q: And the mass density (333.15 K, x1 = 0.1252)?
A: The mass density was 942.334 ± 0.28 kg/m3.

Q: What about the mass density (333.15 K, x1 = 0.1933) of the same compound?
A: The mass density was 930.379 ± 0.29 kg/m3.

Q: What does the source list for O [water] + CCN(CC)CCO?
A: viscosity (298.15 K, x2 = 0): 0.89 ± 0.11 mPa·s; viscosity (303.15 K, x2 = 0): 0.8 ± 0.1 mPa·s; viscosity (313.15 K, x2 = 0): 0.65 ± 0.08 mPa·s; viscosity (323.15 K, x2 = 0): 0.55 ± 0.07 mPa·s; viscosity (333.15 K, x2 = 0): 0.48 ± 0.06 mPa·s; mass density (333.15 K, x2 = 0): 983.2 ± 0.29 kg/m3

Q: Which results are given for O [water] + NCCCCN?
A: viscosity (298.15 K, x2 = 0): 0.89 ± 0.11 mPa·s; viscosity (303.15 K, x2 = 0): 0.8 ± 0.1 mPa·s; viscosity (313.15 K, x2 = 0): 0.65 ± 0.08 mPa·s; viscosity (323.15 K, x2 = 0): 0.55 ± 0.07 mPa·s; viscosity (333.15 K, x2 = 0): 0.48 ± 0.06 mPa·s; mass density (333.15 K, x2 = 0): 983.2 ± 0.29 kg/m3
